Test results as given in patent US20140323476A1, “PEPTIDE DEFORMYLASE INHIBITORS” (priority 2011, published 2014).
≈ marks a conversion by molar mass, not a printed value.

What was measured:
Enterococcus faecalis 7 = assay: Antimicrobial activity assay (MIC); assay type: cell-based; conditions: median of all results obtained, panel run 6 times
Method: (§1) Whole-cell antimicrobial activity was determined by broth microdilution using the Clinical and Laboratory Standards Institute (CLSI, formerly NCCLS) recommended methodology (NCCLS Document M7-A6, “Methods for Dilution Susceptibility Tests for Bacteria that Grow Aerobically—Approved Standard Sixth Edition”, 2003). Compounds were tested in serial two-fold dilutions ranging from 64 to 0.06 μg/mL. A panel of 12 strains was evaluated in the assay. This panel consisted of the following laboratory strains: Staphylococcus aureus Oxford, Staphylococcus aureus WCUH29, Enterococcus faecalis I, Enterococcus faecalis 7, Haemophilus influenzae Q1, Haemophilus influenzae NEMC1, Moraxella catarrhalis 1502, Streptococcus pneumoniae 1629, Streptococcus pneumoniae N1387, Streptococcus pneumoniae Ery2, Escherichia coli 7623 (AcrABEFD+) and Escherichia coli 120 (AcrAB−). The minimum inhibitory concentration (MIC) was determined as the lowest concentration of compound that inhibited visible growth. A mirror reader was used to assist in determining the MIC endpoint.

Enterococcus faecalis I = assay: Antimicrobial activity assay (MIC); assay type: cell-based; conditions: median of all results obtained, panel run 6 times
Method: as §1

[1] = test system: Escherichia coli 120 (AcrAB−); assay: Antimicrobial activity assay (MIC); assay type: cell-based
Method: as §1

[2] = test system: Escherichia coli 7623 (AcrABEFD+); assay: Antimicrobial activity assay (MIC); assay type: cell-based; conditions: median of all results obtained, panel run 6 times
Method: as §1

[3] = test system: Haemophilus influenzae NEMC1; assay: Antimicrobial activity assay (MIC); assay type: cell-based; conditions: median of all results obtained, panel run 6 times
Method: as §1

[4] = test system: Haemophilus influenzae Q1; assay: Antimicrobial activity assay (MIC); assay type: cell-based; conditions: median of all results obtained, panel run 6 times
Method: as §1

[5] = test system: Moraxella catarrhalis 1502; assay: Antimicrobial activity assay (MIC); assay type: cell-based; conditions: median of all results obtained, panel run 6 times
Method: as §1

[6] = test system: Staphylococcus aureus Oxford; assay: Antimicrobial activity assay (MIC); assay type: cell-based; conditions: median of all results obtained, panel run 6 times
Method: as §1

[7] = test system: Staphylococcus aureus WCUH29; assay: Antimicrobial activity assay (MIC); assay type: cell-based; conditions: median of all results obtained, panel run 6 times
Method: as §1

[8] = test system: Streptococcus pneumoniae 1629; assay: Antimicrobial activity assay (MIC); assay type: cell-based; conditions: median of all results obtained, panel run 6 times
Method: as §1

[9] = test system: Streptococcus pneumoniae Ery2; assay: Antimicrobial activity assay (MIC); assay type: cell-based; conditions: median of all results obtained, panel run 6 times
Method: as §1

[10] = test system: Streptococcus pneumoniae N1387; assay: Antimicrobial activity assay (MIC); assay type: cell-based; conditions: median of all results obtained, panel run 6 times
Method: as §1

[11] = Adsorption of labile water versus relative humidity; assay type: physicochemical
[12] = Dissolution rate in water, turbidity and visual inspection; assay type: physicochemical
Method: [(2R)-2-(cyclopentyl methyl)-3-(2-{5-fluoro-6-[(9aS)-hexahydropyrazino[2,1-c][1,4]oxazin-8(1h)-yl]-2-methyl-4-pyrimidinyl}hydrazino)-3-oxopropyl]hydroxyformamide was triturated with a mortar and pestle. The resulting powder (20 g, 1.0 eq, basis) was charged to a 250 mL jacketed vessel. The vessel was equipped with an overhead stirrer which was set to 60 RPM. The jacket fluid was controlled to 23° C. A solution of purified water (125 mL) and methanesulphonic acid (4.0 g, 2.7 mL, 1.0 eq) was prepared. The aqueous methanesulphonic acid solution was added to the vessel containing [(2R)-2-(cyclopentyl methyl)-3-(2-{5-fluoro-6-[(9aS)-hexahydropyrazino[2,1-c][1,4]oxazin-8(1h)-yl]-2-methyl-4-pyrimidinyl}hydrazino)-3-oxopropyl]hydroxyformamide. The resulting suspension was stirred continuously and monitored by turbidity and visual inspection. After 1 day, the turbidity and pH readings stabilized.
[(2R)-2-(cyclopentyl methyl)-3-(2-{5-fluoro-6-[(9aS)-hexahydropyrazino[2,1-c][1,4]oxazin-8(1h)-yl]-2-methyl-4-pyrimidinyl}hydrazino)-3-oxopropyl]hydroxyformamide methanesulphonate was triturated with a mortar and pestle. The resulting powder (24 g, 1.0 eq) was charged to a similar 250 mL jacketed vessel. The vessel was equipped with an overhead stirrer which was set to 60 RPM. The jacket fluid was controlled to 23° C. Purified water (125 mL) was added to the vessel containing [(2R)-2-(cyclopentylmethyl)-3-(2-{5-fluoro-6-[(9aS)-hexahydropyrazino[2,1-c][1,4]oxazin-8(1h)-yl]-2-methyl-4-pyrimidinyl}hydrazino)-3-oxopropyl]hydroxyformamide methanesulphonate. The resulting suspension was stirred continuously and monitored by turbidity and visual inspection. A clear solution was observed visually and confirmed turbidimetrically at 3 minutes.

pH solubility curve = assay type: physicochemical; conditions: thermodynamic from solid
Excerpt: The pH solubility curve can be seen in Table 5 below.

[13] = Degradation rate on storage at forced conditions; assay type: physicochemical; conditions: forced conditions: 50° C., ambient humidity
[14] = Hydrolytic degradation rate of reconstituted lyophile; assay type: physicochemical; conditions: reconstituted lyophile at 5 mg/mL
panel of 12 strains = assay: Antimicrobial activity assay, broth microdilution, panel of 12 strains; assay type: cell-based; conditions: compared with the examples from WO 03/101442
Method: as §1

Compound `Cc1nc(NNC(=O)[C@H](CC2CCCC2)CN(O)C=O)c(F)c(N2CCN3CCOC[C@@H]3C2)n1` [Example 24, [(2R)-2-(Cyclopentylmethyl)-3-(2-{5-fluoro-6-[(9aS)-hexahydropyrazino[2,1-c][1,4]oxazin-8(1H)-yl]-2-methyl-4-pyrimidinyl}hydrazino)-3-oxopropyl]hydroxyformamide] has an MIC (Enterococcus faecalis 7) of 32 µg/mL (≈ 66.7 µM), an MIC (Enterococcus faecalis I) of 48 µg/mL (≈ 100 µM) and an MIC [1] of 0.188 µg/mL (≈ 0.391 µM). For the same compound, the MIC [2] was 16 µg/mL (≈ 33.4 µM), the MIC [3] was 1 µg/mL (≈ 2.09 µM) and the MIC [4] was 0.5 µg/mL (≈ 1.04 µM). The MIC [5] was 0.375 µg/mL (≈ 0.782 µM), the MIC [6] was 2 µg/mL (≈ 4.17 µM) and the MIC [7] was 0.375 µg/mL (≈ 0.782 µM). For the same compound, the MIC [8] was 0.75 µg/mL (≈ 1.56 µM), the MIC [9] was 0.375 µg/mL (≈ 0.782 µM) and the MIC [10] was 0.5 µg/mL (≈ 1.04 µM).
With `CS(=O)(=O)O.Cc1nc(NNC(=O)[C@H](CC2CCCC2)CN(O)C=O)c(F)c(N2CCN3CCOC[C@@H]3C2)n1` [Example 11, [(2R)-2-(Cyclopentylmethyl)-3-(2-{5-fluoro-6-[(9aS)-hexahydropyrazino[2,1-c][1,4]oxazin-8(1H)-yl]-2-methyl-4-pyrimidinyl}hydrazino)-3-oxopropyl]hydroxyl formamide methanesulfonate polymorphic Form 2] the “labile water adsorbed reversibly” value ([11]; up to 95% relative humidity) was “up to 2 % (wt/wt)”.
In the case of `Cc1nc(NNC(=O)[C@H](CC2CCCC2)CN(O)C=O)c(F)c(N2CCN3CCOC[C@@H]3C2)n1` [Example 6], the “relative humidity at which it deliquesces” value [11] is reported as 70 % relative humidity, the “labile water adsorbed reversibly” value ([11]; up to 70% relative humidity) is reported as “up to 0.4 % (wt/wt)” and the “time to clear solution” value ([12]; 24 g powder, 125 mL purified water, 23° C., 60 RPM) is reported as 3 min. For the same compound, the “dissolution and solubility compared to the free base” value ([12]; one equivalent of methanesulphonic acid and water, 160 mg/mL) was “faster dissolution and enhanced solubility”, the solubility (pH solubility curve; Purified Water, pH 3.2, equilibrium not reached) was over 452 mg/mL and the degradation rate ([13]; listed as mesylate) was 0.2 %/month. The “Degradation Rate % hydrolized/day” value ([14]; storage temperature 5° C., listed as Mesylate) was 0.01 % hydrolized/day and the “Degradation Rate % hydrolized/day” value ([14]; storage temperature 25° C., listed as Mesylate) was 0.11 % hydrolized/day.
With `Cc1nc(NNC(=O)[C@H](CC2CCCC2)CN(O)C=O)c(F)c(N2CCN3CCOC[C@@H]3C2)n1` [[(2R)-2-(Cyclopentylmethyl)-3-(2-{5-fluoro-6-[(9aS)-hexahydropyrazino[2,1-c][1,4]oxazin-8(1H)-yl]-2-methyl-4-pyrimidinyl}hydrazino)-3-oxopropyl]hydroxyformamide] the “in vitro antibacterial activity (MIC and/or MIC90) and/or in vivo efficacy” value (panel of 12 strains) was “greater in vitro antibacterial activity (MIC and/or MIC90) and/or better in vivo efficacy”.
For `Cc1nc(NNC(=O)[C@H](CC2CCCC2)CN(O)C=O)c(F)c(N2CCN3CCOC[C@@H]3C2)n1` [Example 1, [(2R)-2-(Cyclopentylmethyl)-3-(2-{5-fluoro-6-[(9aS)-hexahydropyrazino[2,1-c][1,4]oxazin-8(1H)-yl]-2-methyl-4-pyrimidinyl}hydrazino)-3-oxopropyl]hydroxyformamide], the “time observed without complete dissolution” value ([12]; 20 g powder, 125 mL purified water with 1.0 eq methanesulphonic acid, 23° C., 60 RPM) was “over 7.1 days”, the solubility (pH solubility curve; 0.003M methanesulphonic acid, pH 4.86, aqueous buffer) was 1.93 mg/mL (≈ 4020 µM) and the solubility (pH solubility curve; 0.01M methanesulphonic acid, pH 4.33, aqueous buffer) was 4.98 mg/mL (≈ 10400 µM). It also gave a solubility (pH solubility curve; 0.03M methanesulphonic acid, pH 3.98, aqueous buffer) of 13.9 mg/mL (≈ 29000 µM), a solubility (pH solubility curve; 0.05M methanesulphonic acid, pH 3.76, aqueous buffer) of 22 mg/mL (≈ 45900 µM) and a solubility (pH solubility curve; 0.1M methanesulphonic acid, pH 3.57, aqueous buffer) of 41.7 mg/mL (≈ 87000 µM). For the same compound, the solubility (pH solubility curve; 0.3M methanesulphonic acid, pH 3.34, aqueous buffer) was 116 mg/mL (≈ 242000 µM), the solubility (pH solubility curve; 0.5M methanesulphonic acid, pH 3.39, aqueous buffer) was 193 mg/mL (≈ 402000 µM) and the solubility (pH solubility curve; 1M methanesulphonic acid, pH 3.42, aqueous buffer) was 347 mg/mL (≈ 724000 µM). For the same compound, the degradation rate ([13]; listed as free base) was 1.7 %/month, the “Degradation Rate % hydrolized/day” value ([14]; storage temperature 5° C., listed as Free base) was 0.06 % hydrolized/day and the “Degradation Rate % hydrolized/day” value ([14]; storage temperature 25° C., listed as Free base) was 0.53 % hydrolized/day.
